In patent US20240226048A1, “METHODS OF TREATMENT USING BEMPEDOIC ACID” (Esperion Therapeutics, Inc., priority 2023, published 2024):

Experiment: CLEAR OUTCOMES trial: LDL-cholesterol, hsCRP and other lipid/biomarker end points
Format: in vivo, human
From the text: The CLEAR OUTCOMES trial was a randomized, placebo-controlled, double-blind trial that enrolled patients at 1250 sites in 32 countries. An independent Data Monitoring Committee reviewed safety and efficacy data during the trial.
Patients 18 to 85 years of age were eligible for enrollment if they met either of two criteria for increased cardiovascular risk, a prior cardiovascular event (secondary prevention) or clinical features that placed them at high risk for a cardiovascular event (primary prevention). (Nicholls S, Lincoff A M, Bays H E, et al. Rationale and design of the CLEAR-outcomes trial: Evaluating the effect of bempedoic acid on cardiovascular events in patients with statin intolerance. Am Heart J. 2021 May; 235: 104-112) All patients provided written informed consent. Patients had to report statin intolerance due to an adverse effect that started or increased during statin therapy and resolved or improved after statin therapy was discontinued. Patients could be enrolled if they tolerated a very low average daily statin dose (e.g., an average daily dose of rosuvastatin <5 mg, atorvastatin <10 mg, simvastatin <10 mg, lovastatin <20 mg, pravastatin <40 mg, fluvastatin <40 mg, or pitavastatin <2 mg). Other lipid-lowering therapies were permitted, including ezetimibe, niacin, bile acid resins, fibrates, and/or proprotein convertase subtilisin kexin type 9 (PCSK9) inhibitors. Full inclusion and exclusion criteria are provided in Nicholls et al. (Am Heart J. 2021).
Eligible patients entered a 4-week run-in period during which patients were treated with single-blind placebo. If patients were intolerant to placebo treatment or if adherence was <80% by tablet count, they were not eligible for randomization. Patients who successfully completed the run-in period were randomly assigned in a 1:1 ratio to receive bempedoic acid at an oral dose of 180 mg or matching placebo, administered daily. Beginning 6 months after enrollment, the central laboratory notified the investigator if the patient's LDL-cholesterol level was ≥25% higher than baseline. These patients were counseled on healthy dietary guidelines and reminded to take all lipid-regulating medications. If repeat testing confirmed that LDL-cholesterol value met the threshold criteria, the provider could adjust the lipid-lowering treatment regimen per standard of care and local guidelines.
This was an event-driven trial designed to provide at least 90% power to detect a 15% relative risk reduction for the primary composite end point at an overall two-sided significance level of 0.05. The trial required a minimum of 1620 primary composite events with >24 months of follow-up for all patients and at least 810 first key secondary end points. The average treatment duration was estimated to be 42 months and a lost-to-follow-up rate of 1% per year. Assuming a 3.59% annual event rate in the placebo group, enrollment of 12,600 patients was required, subsequently amended to 14,000. There were no interim efficacy analyses. A hierarchical approach was prespecified to evaluate sequentially each of the six key secondary efficacy end points with statistical significance at each step required to test the next hypothesis, thereby preserving the study-wise Type I error rate at 5%. All analyses were based on the intent-to-treat principle. The primary efficacy end point was analyzed using Cox proportional hazards model with treatment as a factor to generate the hazard ratio (HR) and 95% confidence interval (CI). The p-value was obtained from a log-rank test.

[1] = Inadequately Controlled Diabetes at Baseline, median
[2] = Inadequately Controlled Diabetes at Baseline, observed mean
[3] = median, 180 mg oral daily, N = 6992
[4] = observed mean, 180 mg oral daily, N = 6992

CC(C)(CCCCCC(O)CCCCCC(C)(C)C(=O)O)C(=O)O [Bempedoic Acid, Bempedoic acid]
Median change from baseline to month 6 in hsCRP (180 mg oral daily, N = 6992): −22.2% | Change from baseline to Month 6 in fasting glucose (All patients, median): -1.0 mg/dL | Change from baseline to Month 12 in fasting glucose (All patients, median): 0.0 mg/dL | Change from baseline to Month 6 in HbA1c (%) (All patients, observed mean): −0.003% | Change from baseline to Month 12 in HbA1c (%) (All patients, observed mean): 0.04% | Change from baseline to Month 6 in fasting glucose [1]: -4.0 mg/dL | Change from baseline to Month 12 in fasting glucose [1]: -2.75 mg/dL | Change from baseline to Month 6 in HbA1c (%) [2]: −0.20% | Change from baseline to Month 12 in HbA1c (%) [2]: −0.06% | Change from baseline to month 12 in HbA1C in patients with inadequately controlled type 2 diabetes mellitus (adjusted for baseline HbA1c, pattern-mixed model, 180 mg oral daily): −0.04% | Mean change from baseline to month 6 in mean LDL-C (adjusted for baseline LDL-C, pattern-mixed model, 180 mg oral daily, N = 6992): −21.1% | reduction of hsCRP (after 6 months treatment, compared with placebo, median baseline 2.3 mg/L): 21.6% | Change from baseline to month 12 in HbA1C in patients with inadequately controlled type 2 diabetes mellitus, Difference (95% CI) (difference vs placebo): −0.03% | Mean change from baseline to month 6 in mean LDL-C, Difference (95% CI) (difference vs placebo): −20.3% | Median change from baseline to month 6 in hsCRP, Difference (95% CI) (difference vs placebo): −21.6% | Percent change from baseline to Month 6 in triglycerides [3]: −3.4% | Percent change from baseline to Month 12 in triglycerides [3]: −4.8% | Percent change from baseline to Month 6 in HDL-C [4]: −5.8% ± | Percent change from baseline to Month 6 in non-HDL-C [4]: −17.2% ± | Percent change from baseline to Month 6 in total cholesterol [4]: −16.9% ± | Percent change from baseline to Month 12 in HDL-C [4]: −5.7% ± | Percent change from baseline to Month 12 in non-HDL-C [4]: −17.1% ± | Percent change from baseline to Month 12 in total cholesterol [4]: −14.8% ± | Percent change from baseline to Month 24 in non-HDL-C [4]: −16.2% ±
